# Assays:
# [1] = in vivo; cited from earlier work
# [2] = Laq-Na dose incorporated in a clear GA product at increased amino acid concentration; format: physicochemical
# Method: To 6.015 g of Solution C additional amounts of Laq-Na were added drop by drop at stirring at RT. The solutions obtained were clear at 2-8° C. and at RT at Laq-Na concentrations 1.28, 1.49, 1.75 mg/mL.
# [3] = pH optimum for stability and solubility; format: physicochemical
# Source text: Developing formulations containing laquinimod and GA is particularly difficult because laquinimod and GA have different pH optimums in terms of stability and solubility and because of undesired effects, mainly gelation or the formation of turbid formulations in the presence of various buffers, solvents and surface active agents.
# [4] = Saturated solution of laquinimod acid in 0.1 M PBS; format: physicochemical; details: 0.1 M PBS pH 7.4, RT
# Method: A saturated solution of laquinimod acid […] was prepared by dissolving of 4.2283 g of Laq-acid in 0.1 M PBS (pH 7.4, 700 mL) for 3.5 h at RT. After decantation of the suspension the clear upper part was filtered through a paper (Whatman) filter. This clear, filtered solution contained about 1.5 mg/mL of laquinimod acid (Solution A).
# [5] = system: multiple sclerosis (MS); details: cited from earlier work
# [6] = system: acute experimental autoimmune encephalomyelitis (aEAE) model; details: in vivo; cited from earlier work
compound,measurement,setting,value
CCN(C(=O)c1c(O)c2c(Cl)cccc2n(C)c1=O)c1ccccc1 [Laquinimod sodium],Oral bioavailability,[1],high
same,Laq-Na possible to incorporate,[2]; glycine 0.6 mg/mL,1.05 to 1.07 mg/mL
same,Laq-Na possible to incorporate,[2]; glycine 4.2 mg/mL,1.51 mg/mL
same,Laq-Na possible to incorporate,[2]; lysine 1.39 mg/mL,1.06 to 1.09 mg/mL
same,Laq-Na possible to incorporate,[2]; lysine 3.38 mg/mL,1.88 mg/mL
same,Laq-Na possible to incorporate,[2]; proline 0.9 mg/mL,1.06 to 1.09 mg/mL
same,Laq-Na possible to incorporate,[2]; proline 2.45 mg/mL,1.55 mg/mL
"CCN(C(=O)c1c(O)c2c(Cl)cccc2n(C)c1=O)c1ccccc1 [Laquinimod, N-ethyl-N-phenyl-1,2-dihydro-4-hydroxy-5-chloro-1-methyl-2-oxoquinoline-3-carboxamide]",Solubility and stability versus pH,[3],more soluble and stable in alkaline media
same,Laquinimod acid in the clear filtered saturated solution,[4],about 1.5 mg/mL
same,Development of active MRI lesions,[5]; relapsing MS,reduce development of active MRI lesions
same,Efficacy in aEAE model,[6],effective
"L-glutamic acid polymer with L-alanine, L-lysine and L-tyrosine, acetate (salt) [Glatiramer acetate]","Relapse rates, progression of disability, new MRI lesions","[5]; daily subcutaneous injections, 20 mg/injection",reduce relapse rates
same,Efficacy in treating multiple sclerosis,[5]; in vivo,effective

# — patent US20170028013A1 (Teva Pharmaceutical Industries, Ltd., priority 2015, published 2017)
